In BindingDB's records for patent US11130748 (Mission Therapeutics, 2021):

Target: T1, Ubiquitin carboxyl-terminal hydrolase 30 (Homo sapiens, UniProt Q70CQ3)
T1 sequence (Q70CQ3 whole entry): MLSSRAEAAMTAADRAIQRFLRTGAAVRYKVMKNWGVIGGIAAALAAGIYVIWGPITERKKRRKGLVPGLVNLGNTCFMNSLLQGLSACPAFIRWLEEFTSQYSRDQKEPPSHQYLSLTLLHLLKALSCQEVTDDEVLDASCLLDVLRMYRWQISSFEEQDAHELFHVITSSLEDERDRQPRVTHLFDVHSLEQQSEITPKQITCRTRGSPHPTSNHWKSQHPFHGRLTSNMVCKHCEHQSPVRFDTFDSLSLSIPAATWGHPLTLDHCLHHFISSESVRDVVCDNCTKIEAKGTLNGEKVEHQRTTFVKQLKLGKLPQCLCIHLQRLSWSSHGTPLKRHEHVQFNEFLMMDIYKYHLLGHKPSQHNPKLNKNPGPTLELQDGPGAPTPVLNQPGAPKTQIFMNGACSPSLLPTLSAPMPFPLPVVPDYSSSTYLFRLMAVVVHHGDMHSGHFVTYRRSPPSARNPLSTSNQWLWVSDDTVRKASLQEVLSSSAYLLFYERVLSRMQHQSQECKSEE
Experiment: Biochemical Assay
Procedure: Dilution plates were prepared at 21 times the final concentration (2100 μM for a final concentration of 100 μM) in 50% DMSO in a 96-well polypropylene V-bottom plate (Greiner #651201). A typical 8-point dilution series to be 100, 30, 10, 3, 1, 0.3, 0.1, 0.03 μM final. Reactions were performed in duplicate in black 384 well plates (small volume, Greiner 784076) in a final reaction volume of 21 μl. Either 1 μl of 50% DMSO or diluted compound was added to the plate. USP30 was diluted in reaction buffer (40 mM Tris, pH 7.5, 0.005% Tween 20, 0.5 mg/ml BSA, 5 mM beta-mercaptoethanol) to the equivalent of 0.05 μl/well and 10 μl of diluted USP30 was added to the compound. Enzyme and compound were incubated for 30 min at room temp. Reactions were initiated by the addition of 50 nM of TAMRA labelled peptide linked to ubiquitin via an iso-peptide bond as fluorescence polarisation substrate. Reactions were read immediately after addition of substrate and following a 2 hr incubation at room temperature. Readings were performed on a Pherastar Plus (BMG Labtech). λ Excitation 540 nm; λ Emission 590 nm.

IC50: in the range around 0.55 µM
Compound: N#CN1CC[C@H](CNC(=O)c2ncc(-c3ccccc3)s2)C1 [US11130748, Example 61]
